Measured values reported in patent US8173645B2 (Takeda San Diego, Inc., priority 2007, dated 2012).
pEC50: −log10 of the molar value.

Molecular target: T1, glucokinase (GK), residues 12-465 of the human enzyme (Homo sapiens, UniProt P35557)
T1 construct: I.D. No. 1 corresponds to residues 12-465 of glucokinase; made in house; host or cells: E. coli DH10b-Tlr
T1 sequence (P35557 with tags, fused parts or gaps isoform P35557-2): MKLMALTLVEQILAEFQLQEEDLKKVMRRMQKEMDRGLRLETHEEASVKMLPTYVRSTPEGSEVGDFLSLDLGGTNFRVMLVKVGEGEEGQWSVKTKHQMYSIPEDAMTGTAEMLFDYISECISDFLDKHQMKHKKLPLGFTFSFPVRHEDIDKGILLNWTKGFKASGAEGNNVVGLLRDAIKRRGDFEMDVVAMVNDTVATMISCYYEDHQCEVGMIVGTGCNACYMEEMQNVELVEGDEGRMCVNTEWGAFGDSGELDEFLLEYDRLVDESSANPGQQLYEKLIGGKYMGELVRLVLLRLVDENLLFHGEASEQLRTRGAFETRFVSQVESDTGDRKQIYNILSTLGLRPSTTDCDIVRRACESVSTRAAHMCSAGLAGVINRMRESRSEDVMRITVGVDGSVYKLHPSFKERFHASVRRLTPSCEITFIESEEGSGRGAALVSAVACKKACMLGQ
Assay: Enzymatic glucokinase activity assay (KinaseGlo luminescence, ATP consumption)
Assay type: biochemical
Conditions: 5 μM ATP, 5 mM Glucose; for pEC50: GK activation, Kact = concentration giving 50% of the maximal increase in GK activity, read-out: pKact; for Emax: calculated maximal gain in GK enzyme activity at a saturating concentration of the compound, read-out: % ACTmax
In short: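 C-terminally FLAG-tagged enzyme expressed in E. coli and purified. Reaction: 25 mM Hepes pH 7.2, 25 mM NaCl, 10 mM MgCl2, 0.01% Brij35, 1 mM DTT, 5 μM ATP, 5 mM glucose, 2% DMSO, 60 min at room temperature. Remaining ATP was read by luciferase luminescence; pKact and % ACTmax came from nonlinear fits of 11-point 2-fold dilutions.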

| pEC50 | Emax | SMILES |
| --- | --- | --- |
| ≤ 5.50 | 97.1 to 107% | O=C(Nc1nccs1)[C@H](CC1CCCCC1)N1CCN(C(=S)Nc2ccc(OC(F)F)cc2)CC1=O [Example 135, (S)-3-cyclohexyl-2-(4-(4-(difluoromethoxy)phenylcarbamothioyl)-2-oxopiperazin-1-yl)-N-(thiazol-2-yl)propanamide] |
| 5.90 to 6.10 | 108 to 119% | O=C(Nc1nccs1)[C@H](CC1CCCCC1)N1CCN(S(=O)(=O)c2cccc3cccnc23)CC1=O [Example 40, (S)-3-cyclohexyl-2-(2-oxo-4-(quinolin-8-ylsulfonyl)piperazin-1-yl)-N-(thiazol-2-yl)propanamide] |
| ≤ 5.50 | 74.1 to 97% | COC(=O)c1ccc(S(=O)(=O)N2CCN([C@@H](CC3CCCCC3)C(=O)Nc3nccs3)C(=O)C2)o1 [Example 158, (S)-methyl 5-(4-(3-cyclohexyl-1-oxo-1-(thiazol-2-ylamino)propan-2-yl)-3-oxopiperazin-1-ylsulfonyl)furan-2-carboxylate] |
| 5.60 to 5.80 | ≤ 74% | O=C(Nc1nccs1)[C@H](CC1CCCCC1)N1CCN(S(=O)(=O)c2cc(Cl)c(Cl)cc2Cl)CC1=O [Example 219, (S)-3-cyclohexyl-2-(2-oxo-4-(2,4,5-trichlorophenylsulfonyl)piperazin-1-yl)-N-(thiazol-2-yl)propanamide] |
| 5.90 to 6.10 | ≤ 74% | O=C(Nc1nccs1)[C@H](CC1CCCCC1)N1CCN(S(=O)(=O)c2csc3ccccc23)CC1=O [Example 50, (S)-2-(4-(benzo[b]thiophen-3-ylsulfonyl)-2-oxopiperazin-1-yl)-3-cyclohexyl-N-(thiazol-2-yl)propanamide] |
| ≤ 5.50 | 74.1 to 97% | O=C(Nc1nccs1)[C@H](CC1CCCCC1)N1CCN(C(=O)Nc2cccc(C(F)(F)F)c2)CC1=O [Example 141, (S)-4-(3-cyclohexyl-1-oxo-1-(thiazol-2-ylamino)propan-2-yl)-3-oxo-N-(3-(trifluoromethyl)phenyl)piperazine-1-carboxamide] |
| 5.60 to 5.80 | 74.1 to 97% | N#Cc1cc(S(=O)(=O)N2CCN([C@@H](CC3CCCCC3)C(=O)Nc3nccs3)C(=O)C2)ccc1F [Example 230, (S)-2-(4-(3-cyano-4-fluorophenylsulfonyl)-2-oxopiperazin-1-yl)-3-cyclohexyl-N-(thiazol-2-yl)propanamide] |
| 5.90 to 6.10 | 97.1 to 107% | Cc1nccc(-c2cccc(S(=O)(=O)N3CCN([C@@H](CC4CCCCC4)C(=O)Nc4nccs4)C(=O)C3)c2)n1 [Example 169, (S)-3-cyclohexyl-2-(4-(3-(2-methylpyrimidin-4-yl)phenylsulfonyl)-2-oxopiperazin-1-yl)-N-(thiazol-2-yl)propanamide] |
| 5.60 to 5.80 | 74.1 to 97% | O=C(Nc1nccs1)[C@H](CC1CCCCC1)N1CCN(S(=O)(=O)c2ccc(F)c(Cl)c2)CC1=O [Example 177, (S)-2-(4-(3-chloro-4-fluorophenylsulfonyl)-2-oxopiperazin-1-yl)-3-cyclohexyl-N-(thiazol-2-yl)propanamide] |
| ≥ 6.20 | 97.1 to 107% | CN1CCOc2cc(S(=O)(=O)N3CCN([C@@H](CC4CCCCC4)C(=O)Nc4nccs4)C(=O)C3)ccc21 [Example 44, (S)-3-cyclohexyl-2-(4-(4-methyl-3,4-dihydro-2H-benzo[b][1,4]oxazin-7-ylsulfonyl)-2-oxopiperazin-1-yl)-N-(thiazol-2-yl)propanamide] |
| 5.90 to 6.10 | ≥ 119% | COc1ccc(C)cc1S(=O)(=O)N1CCN([C@@H](CC2CCCCC2)C(=O)Nc2nccs2)C(=O)C1 [Example 95, (S)-3-cyclohexyl-2-(4-(2-methoxy-5-methylphenylsulfonyl)-2-oxopiperazin-1-yl)-N-(thiazol-2-yl)propanamide] |
| 5.60 to 5.80 | 108 to 119% | O=C(Nc1nccs1)[C@H](CC1CCCCC1)N1CCN(C(=S)NCc2cccs2)CC1=O [Example 123, (S)-3-cyclohexyl-2-(2-oxo-4-(thiophen-2-ylmethylcarbamothioyl)piperazin-1-yl)-N-(thiazol-2-yl)propanamide] |
| ≤ 5.50 | ≤ 74% | COC(=O)c1c(C)oc(C)c1S(=O)(=O)N1CCN([C@@H](CC2CCCCC2)C(=O)Nc2nccs2)C(=O)C1 [Example 162, (S)-methyl 4-(4-(3-cyclohexyl-1-oxo-1-(thiazol-2-ylamino)propan-2-yl)-3-oxopiperazin-1-ylsulfonyl)-2,5-dimethylfuran-3-carboxylate] |
| 5.90 to 6.10 | ≤ 74% | O=C(Nc1nccs1)[C@H](CC1CCCCC1)N1CCN(S(=O)(=O)c2ccc(C(F)(F)F)cc2)CC1=O [Example 55, (S)-3-cyclohexyl-2-(2-oxo-4-(4-(trifluoromethyl)phenylsulfonyl)piperazin-1-yl)N-(thiazol-2-yl)propanamide] |
| ≤ 5.50 | ≥ 119% | COc1ccc(CCNC(=O)N2CCN([C@@H](CC3CCCCC3)C(=O)Nc3nccs3)C(=O)C2)cc1OC [Example 143, (S)-4-(3-cyclohexyl-1-oxo-1-(thiazol-2-ylamino)propan-2-yl)-N-(3,4-dimethoxyphenethyl)-3-oxopiperazine-1-carboxamide] |
| ≥ 6.20 | 108 to 119% | O=C(Nc1nccs1)[C@H](CC1CCCCC1)N1CCN(S(=O)(=O)c2cccc(F)c2)CC1=O [Example 61, (S)-3-cyclohexyl-2-(4-(3-fluorophenylsulfonyl)-2-oxopiperazin-1-yl)-N-(thiazol-2-yl)propanamide] |
| 5.60 to 5.80 | ≥ 119% | O=C(Nc1ncc(Cl)s1)C(CC1CCOCC1)N1CCN(S(=O)(=O)C2CC2)CC1=O (stereo not drawn) [Example 23, N-(5-chlorothiazol-2-yl)-2-(4-(cyclopropylsulfonyl)-2-oxopiperazin-1-yl)-3-(tetrahydro-2H-pyran-4-yl)propanamide] |
| 5.60 to 5.80 | 74.1 to 97% | N#Cc1ccc(S(=O)(=O)N2CCN([C@@H](CC3CCCCC3)C(=O)Nc3nccs3)C(=O)C2)cc1 [Example 66, (S)-2-(4-(4-cyanophenylsulfonyl)-2-oxopiperazin-1-yl)-3-cyclohexyl-N-(thiazol-2-yl)propanamide] |
| 5.90 to 6.10 | 108 to 119% | O=C(Nc1ncc(F)s1)C(CC1CCOCC1)N1CCN(S(=O)(=O)c2cccc(F)c2)CC1=O (stereo not drawn) [Example 148, 2-(4-(3-fluorophenylsulfonyl)-2-oxopiperazin-1-yl)-N-(5-fluorothiazol-2-yl)-3-(tetrahydro-2H-pyran-4-yl)propanamide] |
| 5.60 to 5.80 | 74.1 to 97% | O=C(Nc1nccs1)[C@H](CC1CCCCC1)N1CCN(S(=O)(=O)c2ccc(OC(F)F)cc2)CC1=O [Example 70, (S)-3-cyclohexyl-2-(4-(4-(difluoromethoxy)phenylsulfonyl)-2-oxopiperazin-1-yl)-N-(thiazol-2-yl)propanamide] |
| 5.60 to 5.80 | 74.1 to 97% | O=C(Nc1nccs1)[C@H](CC1CCCCC1)N1CCN(S(=O)(=O)c2ccc(-n3cccn3)cc2)CC1=O [Example 215, (S)-2-(4-(4-(1H-pyrazol-1-yl)phenylsulfonyl)-2-oxopiperazin-1-yl)-3-cyclohexyl-N-(thiazol-2-yl)propanamide] |
| 5.90 to 6.10 | ≥ 119% | CC(C)C[C@@H](C(=O)Nc1ncc(F)s1)N1CCN(S(=O)(=O)C2CC2)CC1=O [Example 11, (S)-2-(4-(cyclopropylsulfonyl)-2-oxopiperazin-1-yl)-N-(5-fluorothiazol-2-yl)-4-methylpentanamide] |
| 5.60 to 5.80 | 97.1 to 107% | CNC(=O)Nc1ccc(S(=O)(=O)N2CCN([C@@H](CC3CCCCC3)C(=O)Nc3nccs3)C(=O)C2)cc1Cl [Example 214, (S)-2-(4-(3-chloro-4-(3-methylureido)phenylsulfonyl)-2-oxopiperazin-1-yl)-3-cyclohexyl-N-(thiazol-2-yl)propanamide] |
| ≤ 5.50 | 97.1 to 107% | COc1ccc(S(=O)(=O)N2CCN([C@@H](CC3CCCCC3)C(=O)Nc3nccs3)C(=O)C2)cc1OC [Example 88, (S)-3-cyclohexyl-2-(4-(3,4-dimethoxyphenylsulfonyl)-2-oxopiperazin-1-yl)-N-(thiazol-2-yl)propanamide] |
| ≥ 6.20 | 108 to 119% | Cc1ccc(F)cc1S(=O)(=O)N1CCN([C@@H](CC2CCCCC2)C(=O)Nc2nccs2)C(=O)C1 [Example 191, (S)-3-cyclohexyl-2-(4-(5-fluoro-2-methylphenylsulfonyl)-2-oxopiperazin-1-yl)-N-(thiazol-2-yl)propanamide] |
| ≥ 6.20 | 108 to 119% | O=C(Nc1nccs1)[C@H](CC1CCCCC1)N1CCN(S(=O)(=O)c2cccc(Br)c2)CC1=O [Example 232, (S)-2-(4-(3-bromophenylsulfonyl)-2-oxopiperazin-1-yl)-3-cyclohexyl-N-(thiazol-2-yl)propanamide] |
| ≤ 5.50 | 74.1 to 97% | O=C(Nc1nccs1)[C@H](CC1CCCCC1)N1CCN2[C@@H](CCS2(=O)=O)C1=O [Example 31, (S)-3-Cyclohexyl-N-thiazol-2-yl-2-((S)-1,1,4-trioxo-hexahydro-1λ*6*-thia-5,7a-diaza-inden-5-yl)-propionamide] |
